The results in this text go back to patent US11203600B2 (Denali Therapeutics Inc., priority 2017, dated 2021).

The experiment concerns the target GST-hRIPK1 (8-327) (Homo sapiens (Human), UniProt Q13546). The experiment can be described thus: Fluorescent Polarization Binding (FP Binding) assay, RIPK1. The note with it: mean of at least two independent experiments. An outline of the steps: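 Compound displacement of 5 nM labelled ligand from 10 nM GST-hRIPK1 (8-327) was read as FP (531/595 nm) after 30 min at RT. Buffer: HEPES pH 7.5, NaCl, MgCl2, CHAPS, DTT, Pluronic; 1% DMSO final. IC50s were averaged over at least two independent runs.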

Setting [1] is: 10 nM GST-hRIPK1 (8-327), 5 nM fluorescent-labeled ligand, RT, 30 min.

Sequence of GST-hRIPK1 (8-327) (Q13546 8-327): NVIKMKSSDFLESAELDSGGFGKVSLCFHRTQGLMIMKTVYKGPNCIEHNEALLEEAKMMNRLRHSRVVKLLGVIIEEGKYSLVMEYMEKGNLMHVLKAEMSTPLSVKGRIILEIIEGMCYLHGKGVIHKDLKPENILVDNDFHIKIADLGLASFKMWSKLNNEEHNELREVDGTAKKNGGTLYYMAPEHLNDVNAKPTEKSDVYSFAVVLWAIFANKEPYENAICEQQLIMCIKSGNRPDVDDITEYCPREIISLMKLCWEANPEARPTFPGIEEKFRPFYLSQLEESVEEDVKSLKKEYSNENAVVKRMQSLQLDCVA

Under setting [1], `CCOc1nc(N2CCC(F)(C(=O)N3CCOc4c(C#N)cncc4C3)CC2)ncc1F` [Example 178, 4-[1-(4-ethoxy-5-fluoro-pyrimidin-2-yl)-4-fluoro-piperidine-4-carbonyl]-3,5-dihydro-2H-pyrido[3,4-f][1,4]oxazepine-9-carbonitrile] had an IC50 of 0.1 to 100 nM.

The compound `N#Cc1cncc2c1OCCN(C(=O)C1(F)CCN(c3ccnc4nccn34)CC1)C2` [Example 180] yielded a concentration for half-maximal inhibition (IC50) under setting [1] of 100 to 1000 nM.

`CC(C)(CSc1ncc(F)cn1)C(=O)N1CCOc2c(C#N)cncc2C1` [Example 181] returned a 50% inhibitory concentration (IC50) under setting [1] of over 1000 nM.

The compound `N#Cc1cncc2c1OCCN(C(=O)C1(C#N)CCN(c3ncc(F)cn3)CC1)C2` [Example 182, 4-[4-cyano-1-(5-fluoropyrimidin-2-yl)piperidine-4-carbonyl]-3,5-dihydro-2H-pyrido[3,4-f][1,4]oxazepine-9-carbonitrile] gave a 50% inhibitory concentration (IC50) under setting [1] of 100 to 1000 nM.

Under setting [1], `N#Cc1cccc2c1OCCN(C(=O)C1CCN(c3ncc(F)cn3)CC1)C2` [Example 183, 4-[1-(5-fluoropyrimidin-2-yl)piperidine-4-carbonyl]-3,5-dihydro-2H-1,4-benzoxazepine-9-carbonitrile] showed a half-maximal inhibitory concentration (IC50) of 0.1 to 100 nM.

On to `COC1(C(=O)N2CCOc3c(C#N)cncc3C2)CCN(c2ncc(F)cn2)CC1` [Example 185, 4-[1-(5-fluoropyrimidin-2-yl)-4-methoxy-piperidine-4-carbonyl]-3,5-dihydro-2H-pyrido[3,4-f][1,4]oxazepine-9-carbonitrile], for which, under setting [1], the IC50 fell in the range of 0.1 to 100 nM.

Regarding `COc1cnc(Cl)nc1N1CCC(F)(C(=O)N2CCOc3c(C#N)cncc3C2)CC1` [Example 186, 4-[1-(2-chloro-5-methoxy-pyrimidin-4-yl)-4-fluoro-piperidine-4-carbonyl]-3,5-dihydro-2H-pyrido[3,4-f][1,4]oxazepine-9-carbonitrile], the 50% inhibitory concentration (IC50) under setting [1] is over 1000 nM.

As to `CC1CN(c2ncc(F)cn2)CCC1C(=O)N1CCOc2c(C#N)cncc2C1` (centres unmarked) [Example 187, 4-[1-(5-fluoropyrimidin-2-yl)-3-methyl-piperidine-4-carbonyl]-3,5-dihydro-2H-pyrido[3,4-f][1,4]oxazepine-9-carbonitrile], under setting [1], the 50% inhibitory concentration (IC50) is 0.1 to 100 nM.

Compound `N#Cc1cncc2c1OCCN(C(=O)C1(F)CCN(c3ccc(F)cn3)CC1)C2` [Example 188, 4-[4-fluoro-1-(5-fluoro-2-pyridyl)piperidine-4-carbonyl]-3,5-dihydro-2H-pyrido[3,4-f][1,4]oxazepine-9-carbonitrile] yielded a 50% inhibitory concentration (IC50) under setting [1] of 0.1 to 100 nM.

The compound `N#Cc1cncc2c1OCCN(C(=O)C1(F)CCN(c3ncc(C(F)F)cn3)CC1)C2` [Example 189, 4-[1-[5-(difluoromethyl)pyrimidin-2-yl]-4-fluoro-piperidine-4-carbonyl]-3,5-dihydro-2H-pyrido[3,4-f][1,4]oxazepine-9-carbonitrile] registered an IC50 under setting [1] of 100 to 1000 nM.

Compound `COC1(C(=O)N2CCOc3c(C#N)cncc3C2)CCN(c2ccc(F)cn2)CC1` [Example 190, 4-[1-(5-fluoro-2-pyridyl)-4-methoxy-piperidine-4-carbonyl]-3,5-dihydro-2H-pyrido[3,4-f][1,4]oxazepine-9-carbonitrile] gave an IC50 under setting [1] of 100 to 1000 nM.

Regarding `COc1nc(N2CCC(F)(C(=O)N3CCOc4c(C#N)cncc4C3)CC2)ncc1F` [Example 191, 4-[4-fluoro-1-(5-fluoro-4-methoxy-pyrimidin-2-yl)piperidine-4-carbonyl]-3,5-dihydro-2H-pyrido[3,4-f][1,4]oxazepine-9-carbonitrile], under setting [1], the IC50 is 0.1 to 100 nM.

In the case of `N#Cc1cncc2c1OCCN(C(=O)C1(F)CCN(c3ncc(F)cc3F)CC1)C2` [Example 192, 4-[1-(3,5-difluoro-2-pyridyl)-4-fluoro-piperidine-4-carbonyl]-3,5-dihydro-2H-pyrido[3,4-f][1,4]oxazepine-9-carbonitrile], the IC50 under setting [1] was in the range of 0.1 to 100 nM.

The compound `N#Cc1cncc2c1OCCN(C(=O)C1(F)CCN(c3cnc(F)c(F)c3)CC1)C2` [Example 193, 4-[1-(5,6-difluoro-3-pyridyl)-4-fluoro-piperidine-4-carbonyl]-3,5-dihydro-2H-pyrido[3,4-f][1,4]oxazepine-9-carbonitrile] came in with an IC50 under setting [1] of over 1000 nM.

Consider `COc1nc(N2CCC(OC)(C(=O)N3CCOc4c(C#N)cncc4C3)CC2)ncc1F` [Example 194, 4-[1-(5-fluoro-4-methoxy-pyrimidin-2-yl)-4-methoxy-piperidine-4-carbonyl]-3,5-dihydro-2H-pyrido[3,4-f][1,4]oxazepine-9-carbonitrile], for which the IC50 under setting [1] was in the range of 0.1 to 100 nM.

Under setting [1], `COc1nc(N2CCC(OC)(C(=O)N3CCOc4c(C#N)cncc4C3)CC2)nc(C)c1F` [Example 195, 4-[1-(5-fluoro-4-methoxy-6-methyl-pyrimidin-2-yl)-4-methoxy-piperidine-4-carbonyl]-3,5-dihydro-2H-pyrido[3,4-f][1,4]oxazepine-9-carbonitrile] returned an IC50 of over 1000 nM.

As for `COc1nc(N2CCC(F)(C(=O)N3CCOc4c(C#N)cncc4C3)CC2)nc(C)c1F` [Example 196, 4-[4-fluoro-1-(5-fluoro-4-methoxy-6-methyl-pyrimidin-2-yl)piperidine-4-carbonyl]-3,5-dihydro-2H-pyrido[3,4-f][1,4]oxazepine-9-carbonitrile], the IC50 under setting [1] was in the range of 100 to 1000 nM.

Consider `COc1nc(N2CCC(F)(C(=O)N3CCOc4c(C#N)cncc4C3)CC2)nc2ccccc12` [Example 197, 4-[4-fluoro-1-(4-methoxyquinazolin-2-yl)piperidine-4-carbonyl]-3,5-dihydro-2H-pyrido[3,4-f][1,4]oxazepine-9-carbonitrile], for which the IC50 under setting [1] lay within 100 to 1000 nM.

In turn, `N#Cc1cncc2c1OCCN(C(=O)C1(F)CCN(c3cnc4ccccc4n3)CC1)C2` [Example 198, 4-(4-fluoro-1-quinoxalin-2-yl-piperidine-4-carbonyl)-3,5-dihydro-2H-pyrido[3,4-f][1,4]oxazepine-9-carbonitrile] registered a 50% inhibitory concentration (IC50) under setting [1] of 100 to 1000 nM.

As for `N#Cc1cncc2c1OCCN(C(=O)C1(F)CCN(c3cc4ccccc4cn3)CC1)C2` [Example 199, 4-[4-fluoro-1-(3-isoquinolyl)piperidine-4-carbonyl]-3,5-dihydro-2H-pyrido[3,4-f][1,4]oxazepine-9-carbonitrile], the IC50 under setting [1] lay within 0.1 to 100 nM.

As to `N#Cc1cncc2c1OCCN(C(=O)C1(F)CCN(c3ccc4ccccc4n3)CC1)C2` [Example 200, 4-[4-fluoro-1-(2-quinolyl)piperidine-4-carbonyl]-3,5-dihydro-2H-pyrido[3,4-f][1,4]oxazepine-9-carbonitrile], under “GST-hRIPK1 (8-327)”, the IC50 lay in the range of 0.1 to 100 nM.

Where the note is “GST-hRIPK1 (8-327)”, `N#Cc1cncc2c1OCCN(C(=O)C1(F)CCN(c3ncc(F)c(C4CC4)n3)CC1)C2` [Example 201, 4-[1-(4-cyclopropyl-5-fluoro-pyrimidin-2-yl)-4-fluoro-piperidine-4-carbonyl]-3,5-dihydro-2H-pyrido[3,4-f][1,4]oxazepine-9-carbonitrile] showed an IC50 of 0.1 to 100 nM.

In turn, `N#Cc1cncc2c1OCCN(C(=O)C1(F)CCN(c3nc(Cl)ncc3F)CC1)C2` [Example 202, 4-[1-(2-chloro-5-fluoro-pyrimidin-4-yl)-4-fluoro-piperidine-4-carbonyl]-3,5-dihydro-2H-pyrido[3,4-f][1,4]oxazepine-9-carbonitrile] showed an IC50 (GST-hRIPK1 (8-327)) of 0.1 to 100 nM.

For the setting “GST-hRIPK1 (8-327)”, `O=C(C1CCN(c2ncc(F)cn2)CC1)N1CCCc2ccccc2C1` [Example 203, [1-(5-fluoropyrimidin-2-yl)-4-piperidyl]-(1,3,4,5-tetrahydro-2-benzazepin-2-yl)methanone] showed an IC50 of 100 to 1000 nM.

Consider `N#Cc1cncc2c1OCCN(C(=O)C1CCN(c3ccnc4ccnn34)CC1)C2` [Example 205, 4-(1-pyrazolo[1,5-a]pyrimidin-7-ylpiperidine-4-carbonyl)-3,5-dihydro-2H-pyrido[3,4-f][1,4]oxazepine-9-carbonitrile], for which, where the note is “GST-hRIPK1 (8-327)”, the half-inhibitory concentration (IC50) was in the range of 100 to 1000 nM.

In turn, `N#Cc1cncc2c1OCCN(C(=O)C1(F)CCN(c3nccn4ncnc34)CC1)C2` [Example 206, 4-[4-fluoro-1-([1,2,4]triazolo[1,5-a]pyrazin-8-yl)piperidine-4-carbonyl]-3,5-dihydro-2H-pyrido[3,4-f][1,4]oxazepine-9-carbonitrile] came in with an IC50 (GST-hRIPK1 (8-327)) of 0.1 to 100 nM.

With `CCC(C)(C)C(=O)N1CCOc2c(F)cncc2C1` [Example 207, 1-(9-fluoro-3,5-dihydro-2H-pyrido[3,4-f][1,4]oxazepin-4-yl)-2,2-dimethyl-butan-1-one], the concentration for half-maximal inhibition (IC50) (GST-hRIPK1 (8-327)) fell in the range of 100 to 1000 nM.

In turn, `N#Cc1cncc2c1OCCN(C(=O)C1(O)CCN(c3ncc(F)cn3)CC1F)C2` (centres unmarked) [Example 208, 4-[3-fluoro-1-(5-fluoropyrimidin-2-yl)-4-hydroxy-piperidine-4-carbonyl]-3,5-dihydro-2H-pyrido[3,4-f][1,4]oxazepine-9-carbonitrile] yielded an IC50 (GST-hRIPK1 (8-327)) of 100 to 1000 nM.

As to `COC1(C(=O)N2CCOc3c(F)cncc3C2)CCN(c2ncnc(OCC(F)F)n2)CC1` [Example 209, [1-[4-(2,2-difluoroethoxy)-1,3,5-triazin-2-yl]-4-methoxy-4-piperidyl]-(9-fluoro-3,5-dihydro-2H-pyrido[3,4-f][1,4]oxazepin-4-yl)methanone], the IC50 (GST-hRIPK1 (8-327)) was in the range of 100 to 1000 nM.

For the compound `O=C(C1CCN(c2ncnc(OCC(F)F)n2)CC1)N1CCOc2c(F)cncc2C1` [Example 210, [1-[4-(2,2-difluoroethoxy)-1,3,5-triazin-2-yl]-4-piperidyl]-(9-fluoro-3,5-dihydro-2H-pyrido[3,4-f][1,4]oxazepin-4-yl)methanone], for the setting “GST-hRIPK1 (8-327)”, the concentration for half-maximal inhibition (IC50) was 100 to 1000 nM.

Regarding `N#Cc1cncc2c1OCCN(C(=O)C1CCN(c3ncc(F)cn3)CC1O)C2` (centres unmarked) [Example 211, 4-[1-(5-fluoropyrimidin-2-yl)-3-hydroxy-piperidine-4-carbonyl]-3,5-dihydro-2H-pyrido[3,4-f][1,4]oxazepine-9-carbonitrile], the IC50 (GST-hRIPK1 (8-327)) fell in the range of 100 to 1000 nM.

`N#Cc1cncc2c1OCCN(C(=O)C1(F)CCN(c3ccnc4ncnn34)CC1)C2` [Example 212, 4-[4-fluoro-1-([1,2,4]triazolo[1,5-a]pyrimidin-7-yl)piperidine-4-carbonyl]-3,5-dihydro-2H-pyrido[3,4-f][1,4]oxazepine-9-carbonitrile] yielded a half-maximal inhibitory concentration (IC50) (GST-hRIPK1 (8-327)) of 100 to 1000 nM.

Usually IC50 stands for the midpoint of a concentration-inhibition curve. Low values mean higher potency, high ones lower potency.
